We go through 40 compounds from patent publication US20260123631A1, “NATURAL PORPHIN SALT AND USE THEREOF AS PLANT GROWTH REGULATOR AND PLANT IMMUNITY INDUCER” (NANJING BOSTEC BIOLOGICAL ENGINEERING CO., LTD, priority 2022, published 2026).

Data set [1] in a line: Water solubility of the prepared salts. The format is physicochemical.
Data set [2] is described as follows: Stability of sample solutions in the dark/under light. Format: physicochemical. As to conditions: under light 30,000 lux, salts in water, acidic reference in 30% to 50% ethanol. Here is the method:
Determination: An appropriate amount of a salt sample was taken, dissolved with water, and diluted to prepare a test solution with a concentration of about 10 ppm. An acidic reference substance (extremely-insoluble in water) was prepared with a 30% to 50% ethanol aqueous solution into a test solution with a concentration of about 10 ppm.
Each test solution was scanned by an ultraviolet spectrophotometer (at 0 h) for absorbance in a range of 200 nm to 800 nm immediately after being prepared. Then a test solution of each sample was divided into two parts. One part was placed at room temperature of 25° C. in the dark, and the other part was placed under light with a light intensity of 30,000 lux. At 1 h, 2 h, and 3 h, a solution sample was collected and scanned for absorbance respectively.
An absorbance value of a maximum absorption peak at 0 h (starting) of each test solution was set as a relative content of 100%, and a ratio of an absorbance value at each time point to the absorbance value at 0 h was calculated to determine a relative content, %.

Consider `C=CC1=C(C)c2cc3[n-]c(cc4nc(cc5[n-]c(cc1n2)c(C)c5CCC(=O)[O-])C(CCC(=O)[O-])=C4C)c(C)c3C=C.[Cl-].[Fe+2].[Fe+3]` [Example 16, ferrous chlorhematin], for which the solubility in water result in data set [1] is listed as “slightly soluble”.
On the same count and under the same terms, as for `C=CC1=C(C)c2cc3[n-]c(cc4[n-]c(cc5nc(cc1n2)C(C)=C5C=C)c(C)c4CCC(=O)O)c(CCC(=O)O)c3C.[Fe+2]` [Example 6, ferrous protoporphyrin], the entry is “soluble”.
The same measure, in the same setting: as for ferric hydroxyhematin [Example 68], the entry is “slightly soluble”.
Consider “copper iron hydroxychlorophyllin [Example 80]”, for which the solubility in water result in data set [1] is on record as “slightly soluble”. Further, the Relative content came to 79.89% in data set [2] (1 h), 76.11% in data set [2] (2 h) and 73.21% in data set [2] (3 h).
On the same counts, the results for `C=CC1=C(C)c2cc3[nH]c(cc4nc(cc5[nH]c(cc1n2)c(C)c5C=C)C(C)=C4CCC(=O)O)c(CCC(=O)O)c3C.N.N` [Example 2, ammonium protoporphyrin] are “easily soluble”, 60.29%, 48.76% and 45.99%.
For magnesium protoporphyrin [Example 3], the solubility in water result in data set [1] was “soluble”. For the same compound, the Relative content is 93.32% in data set [2] (1 h), 90.98% in data set [2] (2 h) and 89.65% in data set [2] (3 h).
On the same counts, the results for “potassium iron hydroxychlorophyllin [Example 71]” are “easily soluble”, 62.96%, 54.32% and 49.38%.
On the same counts, the results for `C=CC1=C(C)c2cc3[nH]c(cc4nc(cc5[nH]c(cc1n2)c(C)c5C=C)C(C)=C4CCC(=O)[O-])c(CCC(=O)[O-])c3C.[Ca+2]` [Example 4, calcium protoporphyrin] are “soluble”, 90.07%, 87.11% and 85.89%.
On the same counts, the results for `C=CC1=C(C)c2cc3[n-]c(cc4nc(cc5[n-]c(cc1n2)c(C)c5C=C)C(C)=C4CCC(=O)O)c(CCC(=O)O)c3C.[Zn+2]` [Example 8, zinc protoporphyrin] are “slightly soluble”, 90.95%, 89.52% and 86.51%.
Turning to “zinc iron hydroxychlorophyllin [Example 79]”, the solubility in water result in data set [1] was “slightly soluble”. In addition, the Relative content stood at 73.29% in data set [2] (1 h), 69.57% in data set [2] (2 h) and 65.55% in data set [2] (3 h).
For `C=CC1=C(C)c2cc3[n-]c(cc4nc(cc5[n-]c(cc1n2)c(C)c5C=C)C(C)=C4CCC(=O)[O-])c(CCC(=O)[O-])c3C.[Cl-].[Fe+3].[Mn+2]` [Example 15, manganese chlorhematin], in data set [1], the solubility in water entry is “slightly soluble”. Besides, the values for the Relative content in data set [2] (2 h) and in data set [2] (3 h) were 82.32% and 81.07%, respectively.
On to “sodium iron hydroxychlorophyllin [Example 72]”, for which the solubility in water entry in data set [1] is listed as “easily soluble”. Also, the results for the Relative content in data set [2] (1 h), in data set [2] (2 h) and in data set [2] (3 h) were 60.39%, 52.14% and 47.32%, respectively.
For the compound “magnesium iron hydroxychlorophyllin [Example 74]”, the figures for the Relative content in data set [2] (1 h), in data set [2] (2 h) and in data set [2] (3 h) were 80.48%, 67.53% and 67.13%, respectively.
As for `C=CC1=C(C)c2cc3[n-]c(cc4nc(cc5[n-]c(cc1n2)c(C)c5C=C)C(C)=C4CCC(=O)[O-])c(CCC(=O)[O-])c3C.[Fe+3].[Na+].[Na+].[OH-]` [Sodium hydroxyhematin, sodium hydroxyhematin, reference compound], the solubility in water entry in data set [1] is given as “easily soluble”. Also, the results for the Relative content in data set [2] (1 h), in data set [2] (2 h) and in data set [2] (3 h) were 70.21%, 62.33% and 57.03%, respectively.
On the same counts, the results for `C=CC1=C(C)c2cc3[n-]c(cc4nc(cc5[n-]c(cc1n2)c(C)c5CCC(=O)[O-])C(CCC(=O)[O-])=C4C)c(C)c3C=C.[Cl-].[Fe+3].[Zn+2]` [Example 18, zinc chlorhematin] are “slightly soluble”, 93.45%, 93.10% and 92.74%.
Take ferric iron chlorophyllin [Example 33]: the solubility in water entry in data set [1] is given as “slightly soluble”.
On the same count and under the same terms, as for ferrous hydroxyhematin [Example 67], the entry is “slightly soluble”.
For the compound “manganese iron hydroxychlorophyllin [Example 78]”, the solubility in water entry in data set [1] is “slightly soluble”. The Relative content in data set [2] (1 h) is reported as 75.51%; in data set [2] (2 h), 70.44%; in data set [2] (3 h) it was 68.12%.
As for manganese hydroxyhematin [Example 66], the solubility in water entry in data set [1] was “slightly soluble”. Also, the values for the Relative content in data set [2] (1 h), in data set [2] (2 h) and in data set [2] (3 h) were 87.45%, 83.77% and 80.00%, respectively.
On the same counts, the results for zinc hydroxyhematin [Example 69] are “slightly soluble”, 94.32%, 93.24% and 90.85%.
Take ferrous iron chlorin [Example 25]: the solubility in water result in data set [1] is “slightly soluble”.
As for `C=CC1=C(C)c2cc3[n-]c(cc4nc(cc5[n-]c(cc1n2)c(C)c5C=C)C(C)=C4CCC(=O)[O-])c(CCC(=O)[O-])c3C.[Ca+2].[Cl-].[Fe+3]` [Example 14, calcium chlorhematin], in data set [1], the solubility in water entry was “soluble”. Moreover, the Relative content in data set [2] (1 h) came to 82.53%; in data set [2] (2 h), 81.78%; in data set [2] (3 h), 81.97%.
Take ferrous zinc chlorophyllin [Example 38]: the solubility in water result in data set [1] was “slightly soluble”.
The same measure, in the same setting: as for ferric chlorin [Example 58], the entry is “slightly soluble”.
On the same count and under the same terms, with “ferrous copper chlorophyllin [Example 48]” the entry was “slightly soluble”.
In the case of magnesium hydroxyhematin [Example 64], the Relative content was 96.74% in data set [2] (1 h), 93.78% in data set [2] (2 h) and 93.33% in data set [2] (3 h).
For the compound `C=CC1=C(C)c2cc3[n-]c(cc4nc(cc5[n-]c(cc1n2)c(C)c5CCC(=O)[O-])C(CCC(=O)[O-])=C4C)c(C)c3C=C.[Cl-].[Cu+2].[Fe+3]` [Example 19, copper chlorhematin], the solubility in water entry in data set [1] is given as “slightly soluble”. Moreover, the Relative content turned out to be 95.23% in data set [2] (1 h), 95.03% in data set [2] (2 h) and 93.04% in data set [2] (3 h).
With ferrous chlorin [Example 57], the solubility in water entry in data set [1] was “slightly soluble”.
Same read-out and setting: as for “ferric copper chlorophyllin [Example 49]”, the entry is “slightly soluble”; as for ferric zinc chlorophyllin [Example 39], “slightly soluble”.
With copper hydroxyhematin [Example 70], the solubility in water result in data set [1] is “slightly soluble”. The values for the Relative content in data set [2] (1 h), in data set [2] (2 h) and in data set [2] (3 h) were 96.20%, 95.71% and 92.81%, respectively.
Turning to potassium hydroxyhematin [Example 62], in data set [1], the solubility in water result is given as “easily soluble”. Moreover, the Relative content in data set [2] (1 h) stood at 77.06%; in data set [2] (2 h) it was 75.72%; in data set [2] (3 h) it was 73.04%.
Consider “ferrous iron hydroxychlorophyllin [Example 76]”, for which the solubility in water entry in data set [1] is reported as “slightly soluble”.
Turning to `C=CC1=C(C)c2cc3[n-]c(cc4nc(cc5[n-]c(cc1n2)c(C)c5C=C)C(C)=C4CCC(=O)[O-])c(CCC(=O)[O-])c3C.[Cl-].[Fe+3].[NH4+].[NH4+]` [Example 12, ammonium chlorhematin], in data set [1], the solubility in water entry is recorded as “easily soluble”. Moreover, the Relative content in data set [2] (1 h) is listed as 73.07%; in data set [2] (2 h), 67.80%; in data set [2] (3 h) it was 66.25%.
On the same counts, the results for `C=CC1=C(C)c2cc3[nH]c(cc4nc(cc5[nH]c(cc1n2)c(C)c5C=C)C(C)=C4CCC(=O)[O-])c(CCC(=O)[O-])c3C.[Cu+2]` [Example 9, copper protoporphyrin] are “slightly soluble”, 96.42%, 95.56% and 94.88%.
With ferric chlorhematin [Example 17], in data set [1], the solubility in water result was “slightly soluble”.
The same measure, in the same setting: as for ferrous iron chlorophyllin [Example 32], the entry is “slightly soluble”.
Still for that read-out and setting: as for “ferric iron hydroxychlorophyllin [Example 77]”, the entry is “slightly soluble”; as for ferric iron chlorin [Example 26], “slightly soluble”; as for ferric protoporphyrin [Example 7], “slightly soluble”.
